Assay results: patent US8685970B2, “Quinolines and related analogs as sirtuin modulators” (GlaxoSmithKline, LLC, priority 2008, dated 2014)

biological target: T1, SIRT1 (Homo sapiens, UniProt Q96EB6); experiment: Mass spectrometry based SIRT1 deacetylation assay (activation); type: biochemical; conditions: 10 nM SIRT1, 0.5 μM peptide substrate, 120 μM βNAD+, 25 min at 25° C.
T1 sequence (Q96EB6 1-747): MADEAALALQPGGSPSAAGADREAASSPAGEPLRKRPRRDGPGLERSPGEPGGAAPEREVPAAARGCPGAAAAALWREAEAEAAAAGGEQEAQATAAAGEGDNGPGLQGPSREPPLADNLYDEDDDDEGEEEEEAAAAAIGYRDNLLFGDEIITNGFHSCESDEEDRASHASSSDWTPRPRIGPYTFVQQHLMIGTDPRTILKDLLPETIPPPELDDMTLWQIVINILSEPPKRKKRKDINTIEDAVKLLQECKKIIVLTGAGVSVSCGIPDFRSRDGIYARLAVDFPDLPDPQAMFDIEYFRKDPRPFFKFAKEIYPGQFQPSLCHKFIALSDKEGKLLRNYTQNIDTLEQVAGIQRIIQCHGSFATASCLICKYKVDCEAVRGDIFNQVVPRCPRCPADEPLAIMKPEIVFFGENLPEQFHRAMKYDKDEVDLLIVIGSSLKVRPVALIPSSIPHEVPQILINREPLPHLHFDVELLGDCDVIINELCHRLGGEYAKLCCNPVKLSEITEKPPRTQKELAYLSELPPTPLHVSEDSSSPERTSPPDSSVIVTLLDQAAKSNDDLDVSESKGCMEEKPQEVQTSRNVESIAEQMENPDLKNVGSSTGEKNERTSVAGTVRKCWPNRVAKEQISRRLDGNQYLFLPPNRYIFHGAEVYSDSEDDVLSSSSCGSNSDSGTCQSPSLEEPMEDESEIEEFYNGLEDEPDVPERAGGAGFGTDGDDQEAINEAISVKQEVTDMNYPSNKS
Procedure, shortened: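 Recombinant N-His-tagged SIRT1 (E. coli BL21(DE3)), 10 nM, incubated 25 min at 25 °C with 0.5 μM biotin/5TMR-labelled acetyl-p53-derived 20-mer peptide and 120 μM βNAD+ in Tris-acetate pH 8 buffer with DTT and BSA. Formic acid stop; MS quantifies acetylated vs deacetylated peptide. EC1.5 = concentration giving 150% activation versus DMSO.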

Compound	% Fold Act. (percent maximum fold activation)	EC1.5 (concentration of test compound that results in 150% activation of SIRT1)
O=C(Nc1ncc(CN2CCOCC2)s1)c1cccc2ccc(-c3cccc(OC(F)(F)F)c3)nc12 [Compound 189]	A (Fold activation >200%)	A (EC1.5<1.0 uM)
Cc1cc(NC(=O)c2cccc3ccc(-c4cccc(C(F)(F)F)c4)nc23)no1 [Compound 73]	B (Fold Activation <200%)	B (EC1.5 1-25 uM)
O=C(Nc1ccncc1)c1cccc2ccc(-c3cccc(N4CCOCC4)c3)nc12 [Compound 254]	A (Fold activation >200%)	A (EC1.5<1.0 uM)
O=C(Nc1cccc2ccc(-c3ccc(F)c(C(F)(F)F)c3)nc12)c1ccccc1 [Compound 170]		C (EC1.5>25 uM)
O=C(Nc1cccc(N2CCCC2)n1)c1cccc2ccc(-c3cccc(C(F)(F)F)c3)nc12 [Compound 320]	A (Fold activation >200%)	A (EC1.5<1.0 uM)
Cc1ccnc(NC(=O)c2cccc3ccc(-c4cccc(C(F)(F)F)c4)nc23)n1 [Compound 49]	A (Fold activation >200%)	A (EC1.5<1.0 uM)
O=C(NCc1ccncc1)c1cccc2ccc(-c3cccc(C(F)(F)F)c3)nc12 [Compound 37]	B (Fold Activation <200%)	B (EC1.5 1-25 uM)
O=C(Nc1cccnn1)c1cccc2ccc(-c3cccc(N4CCOCC4)c3)nc12 [Compound 269]	A (Fold activation >200%)	A (EC1.5<1.0 uM)
Cc1cnc(NC(=O)c2cccc3ccc(-c4cccnc4)nc23)s1 [Compound 241]	B (Fold Activation <200%)	A (EC1.5<1.0 uM)
FC(F)(F)c1cccc(-c2ccc3cccc(NCc4cccnc4)c3n2)c1 [Compound 135]		C (EC1.5>25 uM)
O=C(Nc1cccc2ccc(-c3ccc(F)c(C(F)(F)F)c3)nc12)c1cscn1 [Compound 158]		C (EC1.5>25 uM)
O=C(Nc1ccnc(N2CCCC2)c1)c1cccc2ccc(-c3cccc(C(F)(F)F)c3)nc12 [Compound 322]	A (Fold activation >200%)	A (EC1.5<1.0 uM)
O=C(NCc1cccnc1)c1cccc2ccc(-c3cccc(C(F)(F)F)c3)nc12 [Compound 36]	A (Fold activation >200%)	C (EC1.5>25 uM)
c1cncc(CNc2cccc3ccc(-c4cccc(N5CCCC5)c4)nc23)c1 [Compound 173]		C (EC1.5>25 uM)
Cc1cc(-c2ccc3cccc(C(=O)Nc4ccccn4)c3n2)no1 [Compound 64]		C (EC1.5>25 uM)
O=C(Nc1ccc(OCC(O)CO)cc1)c1cccc2ccc(-c3cccc(OC(F)(F)F)c3)nc12 (centres unmarked) [Compound 150]	A (Fold activation >200%)	A (EC1.5<1.0 uM)
CS(=O)(=O)c1ccccc1-c1ccc2cccc(NC(=O)c3cscn3)c2n1 [Compound 93]	A (Fold activation >200%)	A (EC1.5<1.0 uM)
O=C(Nc1ncccn1)c1cccc2ccc(-c3cccc(C(F)(F)F)c3)nc12 [Compound 48]	A (Fold activation >200%)	A (EC1.5<1.0 uM)
COc1cccc(C(=O)Nc2cccc3ccc(-c4cccc(C(F)(F)F)c4)nc23)c1 [Compound 205]	B (Fold Activation <200%)	B (EC1.5 1-25 uM)

Compound	% Fold Act. (percent maximum fold activation)	EC1.5 (concentration of test compound that results in 150% activation of SIRT1)
O=C(Nc1ccccn1)c1cccc2ncc(-c3cccc(C(F)(F)F)c3)nc12 [Compound 129]	B (Fold Activation <200%)	A (EC1.5<1.0 uM)
O=C(Nc1nccs1)c1cccc2ccc(-c3ccc(C(F)(F)F)cc3)nc12 [Compound 96]		C (EC1.5>25 uM)
O=C(Nc1cccc(Cl)n1)c1cccc2ccc(-c3cccc(C(F)(F)F)c3)nc12 [Compound 89]		C (EC1.5>25 uM)
O=C(Nc1cccc2ccc(-c3ccccc3F)nc12)c1cscn1 [Compound 75]	A (Fold activation >200%)	B (EC1.5 1-25 uM)
c1cncc(CNc2cccc3ccc(-c4ccncc4)nc23)c1 [Compound 146]		C (EC1.5>25 uM)
CS(=O)(=O)c1cccc(-c2ccc3cccc(NC(=O)c4cscn4)c3n2)c1 [Compound 81]	A (Fold activation >200%)	A (EC1.5<1.0 uM)
O=C(Nc1cccc2ccc(-c3ccc(F)nc3)nc12)c1cscn1 [Compound 176]	A (Fold activation >200%)	A (EC1.5<1.0 uM)
O=C(Nc1cccnc1)c1cccc2ncc(-c3ccccc3)nc12 [Compound 117]	B (Fold Activation <200%)	B (EC1.5 1-25 uM)
O=C(Nc1cccnc1)c1cccc2ccc(-c3cccc(OC(F)(F)F)c3)nc12 [Compound 25]	A (Fold activation >200%)	A (EC1.5<1.0 uM)
FC(F)(F)Oc1cccc(-c2ccc3cccc(NCc4nccs4)c3n2)c1 [Compound 140]		C (EC1.5>25 uM)
O=C(Nc1cccnn1)c1cccc2ccc(-c3cccnc3)nc12 [Compound 263]	A (Fold activation >200%)	A (EC1.5<1.0 uM)
O=C(Nc1cccc(CN2CCOCC2)n1)c1cccc2ccc(-c3ccnc(C(F)F)c3)nc12 [Compound 306]	A (Fold activation >200%)	A (EC1.5<1.0 uM)
O=C(Nc1cccc(CN2CCCC2)n1)c1cccc2ccc(-c3cccc(C(F)(F)F)c3)nc12 [Compound 227]	A (Fold activation >200%)	A (EC1.5<1.0 uM)
O=C(Nc1ncnc2ccc(-c3cccc(C(F)(F)F)c3)nc12)c1cscn1 [Compound 259]	A (Fold activation >200%)	A (EC1.5<1.0 uM)
O=C(Nc1nccs1)c1c(F)ccc2ccc(-c3cccc(C(F)(F)F)c3)nc12 [Compound 83]	A (Fold activation >200%)	B (EC1.5 1-25 uM)
O=C(Nc1cccc(N2CCOCC2)n1)c1cccc2ccc(-c3cccc(C(F)(F)F)c3)nc12 [Compound 319]	A (Fold activation >200%)	A (EC1.5<1.0 uM)
O=C(Nc1cccc2ccc(-c3cccc(O)c3)nc12)c1cscn1 [Compound 185]	B (Fold Activation <200%)	B (EC1.5 1-25 uM)
O=C(Nc1cnccn1)c1cccc2ccc(-c3cccc(OC(F)(F)F)c3)nc12 [Compound 17]	A (Fold activation >200%)	A (EC1.5<1.0 uM)
